In patent US20230095509A1, “NON-FIBRILLAR HEMOGLOBIN S OLIGOMERS AND METHODS TO IDENTIFY MODULATORS OF HEMOGLOBIN S POLYMERIZATION” (REGENTS OF THE UNIVERSITY OF MINNESOTA, priority 2021, published 2023):
Entries after “also recorded” stand apart in the source; their conditions may differ.

Columns and labels:
[1] = test system: RBC from individuals with SCD (genotype HbSS); assay: Microfluidic measurement of oxygen-dependent sickle blood flow; format: cell-based, human; conditions: for area under the velocity response curve (AUC) relative to control / deceleration rate of blood during deoxygenation: 500 μM, RBC at 25% hematocrit, 7 individuals with SCD, 1 hour at 37° C.; for deceleration rate of blood during deoxygenation: FIG. 8C
Description: We treated RBC suspensions at 25% hematocrit from 7 individuals with SCD (genotype HbSS) with 500 μM of our hit compounds or voxelotor (positive control) and quantified the flow in our microfluidic platform under well-defined oxygen tensions. (FIG. 8A) Representative image of blood flowing in microfluidic device with overlay of arrows representing the velocities of features between frames using the Lucas Kanade Tomasi algorithm. (FIG. 8B) Area under velocity response curve (AUC) comparison among treated samples compared to the vehicle control. (FIG. 8C) Deceleration rate comparison among treated samples compared to the vehicle control. All statistics were performed using a one-tailed Wilcoxon signed rank test, a=0.05, * p-value<0.05, **p-value<0.01
(FIG. 9A) Raw oxygen and velocity recordings during microfluidic experiment. Arrow indicates the change in the steady state mean velocity after introducing hypoxic conditions on the microfluidic chip. (FIG. 9B) The on-chip oxygen concentration is cycled seven times during the experiment between 21% 02 and hypoxia. Changes in the velocity during each cycle are normalized to the average velocity of the initial 21% cycle. (FIG. 9C) Shaded region represents the area under the curve (AUC) using the steady state mean velocity changes at each oxygen concentration. This measurement quantifies the overall oxygen response of the blood by accounting for both the magnitude of the steady state mean velocity drop as well as the persistence of oxygen-dependence at higher oxygen concentrations (FIG. 9D) Blood deceleration is measured by a segmented moving mean of the velocity response during the hypoxic transition using Matlab signal processing.
Blood Sample Collection and Preparation for Microfluidic Assays: Sickle cell patient blood samples were collected under protocols approved by the Institutional Review Boards at Children's Minnesota Hospital, the University of Minnesota Medical Center, and the University of Minnesota. Patient blood samples were collected into sodium citrate vacutainer tubes and stored at 4° C. The samples were prepared for the microfluidic experiments by washing twice with Dulbecco's phosphate buffered saline (DPBS) after centrifugation for 5 minutes at 400g. Packed red blood cells were then isolated by centrifuging the washed samples for 10 minutes at 400g and removing all remaining DPBS. The packed red blood cells were added to fresh DPBS to achieve a target hematocrit of 25%. Each compound of interest was added to the sample to reach a target concentration of 500 uM and incubated at 37° C. for 1 hour before being run on the microfluidic device. The compounds were dissolved in DMSO at a concentration of 100 mM and stored at −20° C. or −80° C. prior to use.
Microfluidic Setup and Experimental Protocol: A previously described (Valdez et al., 2019, APL Bioengineering 3, 046101; Geisness et al., 2022, Haematologica, 107(6); Hansen et al., 2020, Br J Haematol, (2019). Br J Haematol. 188(6): 985-993), polydimethylsiloxane (PDMS) microfluidic device replicating the geometry of the post-capillary venules was used to study blood rheological behavior. […] The microfluidic channels were primed by flowing a 2% bovine serum albumin (BSA) in DPBS solution through the device to passivate the PDMS surface. Blood was then added to the inlet port and flowed through the device under a constant driving pressure to achieve an initial velocity of […] (PCD-15PSIG, Alicat Scientific). At the bifurcation, blood is diverted to two […] square channels—a bypass channel and an experimental channel. Separate gas inlets supply oxygen to each of the two blood channels independently via diffusion from the overlaid gas layer. The bypass channel is supplied with air and maintained under normoxic conditions. […]

[2] = test system: RBC from healthy donors (genotype HbAA); assay: Microfluidic measurement of RBC oxygen saturation (Quantitative Absorption Cytometry, P50); format: cell-based, human; conditions: for P50 (hemoglobin oxygen binding affinity) relative to control: 500 μM, RBC from 4 healthy donors, 1 hr at 37C at 25% hematocrit, diluted to 1% hematocrit with drug, FIG. 10
Description: Measurement of hemoglobin oxygen saturation in RBC from 4 healthy donors (genotype HbAA). RBC at 25% hematocrit were incubated with 500 uM voxelotor, chlormezanone, gabazine, or DMSO (control) for 1 hr at 37C and then diluted to 1% hematocrit with drug.
Microfluidic Measurement of RBC Oxygen Saturation: The Quantitative Absorption Cytometry assay described previously (Di Caprio et al., 2019, Proc Natl Acad Sci USA 116, 25236-25242; Di Caprio et al., 2015, Proc Natl Acad Sci USA 112, 9984-9989), takes images of single red blood cells (RBC) under alternating 410 nm and 430 nm LEDs. Due to the unique absorption spectra of oxy and deoxy hemoglobin the transmitted light at 410 nm and 430 nm permits measurement of the single cell saturation can be calculated. The cells are perfused through a microfluidic device with oxygen control that permits measurement of the oxygen saturation of a population of RBC under defined oxygen tension. The polydimethysiloxane (PDMS) microfluidic device for this assay comprises two layers- a gas layer and a blood layer bonded to a glass coverslip. These two layers are separated by 100 μm of PDMS. The gas layer allows for precise control of oxygen tension that will diffuse to the blood layer; the blood layer contains a 30 mm diffusion section to allow red blood cells to reach steady state saturation and a 5 mm observation section to imaging RBCs.
To prepare RBC for measurement, blood samples were washed and resuspended in 10% w/v BSA in PBS, and 0.5 μL of 100 mM therapeutic in DMSO was added to the sample. The sample was then incubated on a shaker plate at 37° C. for one hour. After incubation samples were washed again and 10 μL packed red blood cells was added to a solution of 288 μL 25% Human Serum Albumin (HAS) solution (Gemini Bio).
In this assay, we prepared samples identically to the preparation for blood flow by incubating with drug at 25% hematocrit, and then we diluted the samples to 1% hematocrit with […] drug in the dilution buffer.

Compound	area under the velocity response curve (AUC) relative to control [1]	deceleration rate of blood during deoxygenation [1]	P50 (hemoglobin oxygen binding affinity) relative to control [2]	modification of the hemoglobin ([1]; 500 μM at 25% hematocrit, assuming complete RBC partitioning and 30-36 g/dl intracellular hemoglobin)	modification of hemoglobin ([2]; samples diluted to 1% hematocrit with drug in the dilution buffer) [%]
COc1ccc(-c2ccc(=N)n(CCCC(=O)O)n2)cc1 [gabazine]	insignificant trend towards reduced AUC	significantly reduced the deceleration rate	neither chlormezanone nor gabazine significantly shifted P50; also recorded: no significant (p>0.05) change in P50	–	–
CN1C(=O)CCS(=O)(=O)C1c1ccc(Cl)cc1 (centres unmarked) [chlormezanone]	significantly reduced the mean AUC	significantly reduced the deceleration rate	neither chlormezanone nor gabazine significantly shifted P50; also recorded: no significant (p>0.05) change in P50	–	–
CC(C)n1nccc1-c1ncccc1COc1cccc(O)c1C=O [voxelotor]	significantly reduced the mean AUC	significantly reduced the deceleration rate	significantly (p<0.05) decreases P50; also recorded: large shift in P50; also recorded: significantly decreased the P50	35-45%	~100
